# In US9416136B2, “Pyrrolopyrimidine compounds and their uses” (Novartis AG, priority 2008, dated 2016):
# How the values were obtained:
# cell cycle = cell cycle analysis; format: cell-based; conditions: concentrations of 1 and 10 uM
# Excerpt: (§1) Moreover, the inhibitory effects of the CDK4 inhibitor are absolutely dependent upon the presence of the Retinoblastoma protein (pRb). Activities in pRb negative cells for candidate CDK4 inhibitors indicate that the compounds have off-target activities and not as selective.
# pRb negative cells = assay: cell proliferation of pRb negative cells; format: cell-based; conditions: high concentrations
# Excerpt: as §1
compound,measurement,setting,value
CN(C)C(=O)c1cc2cnc(Nc3ccc(N4CCNCC4)cc3)nc2n1C1CCCC1 [Example 200],cell cycle arrest phase,cell cycle,starts to induce G2/M phase blocks
same,inhibition of cell proliferation of pRb negative cells,pRb negative cells,does inhibit the cell proliferation of pRb negative cells at high concentrations
